Results as given in ChEMBL document CHEMBL3507680, “University of Dundee, Gates Library screen for HepG2 cell viability”.

Test: Human HepG2 cell viability assay in 384 well format
Format: toxicity, cell-based
Parameters: dose 125 nL, time 70.5 hour; concentration not given beside the values
Settings: HepG2 cells, read-out: Inhibition

Structure (SMILES)	cytotoxicity at 70.5 h [%]
COCC(=O)N[C@H](C)c1c(-c2ccc(Cl)cc2)noc1C(=O)O	-2.23
Cc1noc(CNC(=O)C2CSCCC(=O)N2)n1 (centres undefined)	-12.9
COCC1(CNC(=O)Nc2cc(F)ccc2OC)CCCC1	6.61
CCOC1COC2(CCN(Cc3ccc(C)c(C)c3)CC2)C1 (centres undefined)	-11
COCC1CN(C(=O)c2cccn2C)Cc2cnn(C)c21 (centres undefined)	-0.85
COc1ccc(N2CCN(C(=O)CCCc3cn[nH]c3)CC2=O)cc1	24.3
O=C(c1cccc(CNS(=O)(=O)c2ccccc2F)c1)N1CCCC1	-16.2
COCCn1ccnc1C1CCCN(c2ncnc3c(C)csc23)C1 (centres undefined)	23.8
CC(NC(=O)N1CCN(c2nccs2)CC1)c1nncn1C (centres undefined)	-7.23
CC(CNS(C)(=O)=O)c1ccc(F)c(F)c1 (centres undefined)	-1.08
Cc1ccccc1C(NC(=O)NCC1(O)CCC1)C1CC1 (centres undefined)	5.34
O=C1CCc2cc(S(=O)(=O)NC(=O)c3ccc4c(c3)CCO4)ccc2N1	-1.87
COc1cc(C)cc(C(C(=O)O)N(C)CCN2CCCC2)c1OC (centres undefined)	-2.88
CNC(=O)NC(=O)CN1CCC(c2c[nH]c3ccc(OC)cc23)CC1	-5.75
COc1cc(C)nc(N2CCN(C(=O)c3ccn(C)c(=O)c3)CC2)n1	-0.122
CCOCC1CN(S(=O)(=O)C2CC2)Cc2ncn(CC3CC3)c21 (centres undefined)	-4.92
Cn1nc(C2CNCCO2)cc1CCOc1cccc(C(F)(F)F)c1 (centres undefined)	7.31
CNc1ncc(C(=O)N2CCOC(C(=O)N3CCCCCC3)C2)cn1 (centres undefined)	-2.75
CC(=O)N1N=C(c2cccs2)OC1C(=O)NCCc1cccc(Cl)c1 (centres undefined)	28.8
FC(F)(F)Sc1ccccc1NCc1nc(C2CC2)no1	16.7
Cc1noc(C(C)Nc2ccc(N3CCOCC3)cc2C)n1 (centres undefined)	-4.53
CNC(=O)NC(=O)CN(C)C(c1cccnc1)c1ccc(F)cc1F (centres undefined)	-1.87
COc1ccc2cc(C3CN(C(=O)CN4CCCC4)CCO3)ccc2c1 (centres undefined)	2.28

Structure (SMILES)	cytotoxicity at 70.5 h [%]
Cn1cc(C(=O)N2CCCC(c3ncc[nH]3)C2)cn1 (centres undefined)	-7.17
Cc1ccc(F)c(S(=O)(=O)NCc2cccc(N3CCOC3=O)c2)c1	-4.03
COC1CCN(C(=O)c2csc(-c3ccccc3F)n2)CC1	-4.85
CCOC(=O)c1sc(NC(=O)CN2C(=O)CCC2=O)c(C#N)c1C	31.1
COc1cc(CN2CC[C@@H](N3CCCCCC3)[C@H](O)C2)cc(Cl)c1OC	-4.33
c1cnc2nc(C3CCNCC3)[nH]c2c1	-11.9
COc1ccc(C(=O)N(CCO)Cc2ccccc2)c(OC)n1	21.2
COCCn1cnnc1CCNc1cc(C)nc2ccnn12	-2.09
CCC[C@@H](NC(N)=O)C(=O)N1CCc2ccccc2CC1	-3.57
CCCS(=O)(=O)CC(=O)Nc1cc(CC(C)(C)C)n[nH]1	-0.508
CCc1noc(CCC(=O)N[C@@H]2CC[C@@H](n3ccnc3)[C@@H]2O)n1	-8.61
COCCN1CCC1c1cc(N)nc(C)n1 (centres undefined)	-2.65
CC(CC(=O)NS(C)(=O)=O)C1CCCCC1 (centres undefined)	-13.9
O=C(O)c1cc(S(=O)(=O)Nc2ccc(F)cc2Cl)cc2c1OCCO2	0.949
CC(C)Oc1ccccc1-c1cc(CN)ccc1F	5.05
CCOCC(O)CN1CCN(C(=O)c2ccc(N(C)C)nn2)CC1 (centres undefined)	24.3
Cc1cc(C)n(CC2CCCN2Cc2c(C)noc2C)n1 (centres undefined)	34.3
CNC(=O)C(NC(=O)c1ccn(C)c(=O)c1)c1ccccc1 (centres undefined)	33.4
O=C(NCC1CCOCC1)[C@@H]1C[C@@H]2CCN(Cc3ccco3)C[C@H]2O1	-5.42
CN(C)C(=O)CN1C(=O)CCC12CCN(Cc1cccs1)CC2	9.34
O=C1CSCN1CC(=O)N1CCCC1c1nc2ccccc2s1 (centres undefined)	2.26
O=C(CCCn1cncn1)N1CCC2(CCCN(C3CCCC3)C2=O)C1 (centres undefined)	-4.98
CCC(C#N)NC(=O)COC1CCCCC1 (centres undefined)	-13.3

Structure (SMILES)	cytotoxicity at 70.5 h [%]
Cc1ncoc1C(=O)N1C[C@@H]2CN(CC3CC3)CCO[C@@H]2C1	10.6
CC(C)OCCC(=O)Nc1c(-c2ccc(F)cc2)ncn1C	2.71
O=C(c1ccoc1)N1CCC2(CC1)C(=O)Nc1ccccc12	-2.01
CCCN1CCC(Nc2nc(CC)ns2)CC1	-2.52
CCNC(=O)[C@@H]1C[C@@H](N)CN1Cc1ccc(-c2ccccc2C#N)o1	-6.11
CC(C)c1cc(C(=O)N(C)Cc2cccc3ncccc23)n(C)n1	-3.18
Cc1noc(C)c1CN1CC2(CCN(C(=O)c3cscn3)CC2)CC1=O	-10.1
COCC(=O)N1CCN(S(=O)(=O)c2ccccc2)[C@@H](C(=O)OC)C1	-5.08
Cc1cc(C)n(C2=NC(NCCC(C)C)c3c(sc4c3CCCC4)N2)n1 (centres undefined)	1.07
CCc1cc(C(=O)N2CCc3c(ncn3CCc3ccccc3)C2)[nH]n1	5.19
Cc1ncsc1C(=O)NC1CCN(CCC#N)CC1	16.5
CNc1nc(C(=O)NCC2CCOc3ccccc3C2)cs1 (centres undefined)	15.5
NC(=O)[C@@H]1Cc2ccccc2CN1S(=O)(=O)N1CCCCCC1	-4.6
CN1CCCc2cc(CNC(=O)c3cc[n+]([O-])cc3)ccc21	-6.17
CN(c1ncccc1C#N)C1CCN(CCc2ccccn2)CC1	13.7
Cc1cc(C[C@@H]2CCC[C@H]2NCc2ccccc2C(F)(F)F)on1	-17.3
CCNc1cc2c(nn1)CCN(C(=O)c1c(C)noc1C)C2	-2.94
CC(=O)Nc1ncc(S(=O)(=O)Nc2ccc(F)cc2F)s1	-0.452
Cc1cc(-c2cnc(N3CCN(C)CC3)nc2-c2ccc(C)s2)on1	6.38
CN(C(=O)CSc1ncc[nH]1)C1CC1	-3.27
Cc1cnc(NC2CCc3c(ccc(=O)n3CC3CC3)C2)nc1 (centres undefined)	-5.47
CCc1nccn1C1CCCN(C(=O)Cc2cn3ccccc3n2)C1 (centres undefined)	-3.88
O=C1CC2(CCN(C(=O)c3ccccn3)CC2)Oc2c(Cl)cc(Cl)cc21	-6.72

Structure (SMILES)	cytotoxicity at 70.5 h [%]
CN(C)C(=O)c1ccccc1NC(=O)N(C)Cc1ccccc1O	4.11
CCNc1ncnc2c1CN(C1CCCNCC1)C(=O)CN2C (centres undefined)	1.19
Cc1cccc(C)c1NC(=O)CC(CN1CCN(C)CC1)C(=O)O (centres undefined)	-15.8
CN(C)c1nccnc1N1CC[C@@]2(O)CCNC[C@H]2C1	9.65
Cc1csc(C2CCCCN2C(=O)c2cc(C)n(C)n2)n1 (centres undefined)	25.5
COCc1cccc(CNCc2c(C(C)C)nn(C)c2N(C)C)c1	-7.7
COCC(=O)N1CCC(c2cc(C(F)(F)F)c3c(C)noc3n2)CC1	12.4
CCOc1ccccc1C(N)CC(C)C (centres undefined)	-0.686
Cc1nn(CC(=O)N2CCCN(c3cccnn3)CC2)c(C)c1Cl	0.771
NS(=O)(=O)CCNC(=O)CCc1cc(Br)cs1	1.86
CC(C)Cn1ccnc1CNC(=O)N1CCCC1CN1CCOCC1 (centres undefined)	-4.49
Cc1noc([C@]23COC[C@H]2CN(S(=O)(=O)C2CC2)C3)n1	-1.24
CCc1nccn1C1CCCN(C(=O)c2cnn3cccnc23)C1 (centres undefined)	27.7
Cc1nccn1CCC1CCN(c2ccncn2)CC1	-2.98
Cc1ccc(C(=O)NCCS(=O)(=O)Cc2ccccc2)c(=O)[nH]1	-9.89
Cc1c(CN2CCCC(C(=O)c3ccccc3)C2)cc(C#N)n1C (centres undefined)	-4.58
CC1CN(S(=O)(=O)c2cc(S(C)(=O)=O)ccc2Br)c2cccnc2O1 (centres undefined)	1.23
CCn1cc(CN(C)Cc2cnn(-c3ccc(F)cc3)c2)cn1	13.5
CNc1cc(C(=O)N2CCC3(CC2)Nc2ccccc2NC3=O)ccn1	-4.39
Cc1ncc(-c2ccnc(N3CCCCC3)n2)c(=O)[nH]1	-7.09
CC(C)Nc1nc2c(cc1C(=O)O)CCN(Cc1ccsc1)CC2	-6.73
CN(C)C(=O)CN1CCC2(CC1)CC(=O)c1ccc3ccccc3c1O2	-6.26
CN1CC(=O)N(c2cnn(C)c2)CC12CCN(Cc1ccccc1)C2 (centres undefined)	0.248

Structure (SMILES)	cytotoxicity at 70.5 h [%]
COc1ccc(CN2CC[C@H](O)[C@@H]2Cc2cnn(C)c2)cc1	-11.4
CCn1nc(C)c(CCNC(=O)C2CCCN(C(=O)N(C)C)C2)c1C (centres undefined)	-11.9
CCn1nccc1CN(C)C(=O)Cn1nc(C)c(C)c1C	-4.43
O=C(Nc1ccccc1)C1CCN(C(=O)COc2ccccc2F)CC1	7.69
CCN1C(=O)CCCC12CCCN(C(=O)c1ccoc1)C2 (centres undefined)	-3.69
Cc1nc(C(=O)N2CCCC2c2c(C)nn(C)c2C)cs1 (centres undefined)	-3.9
CO[C@H]1CC[C@H]2[C@H]1OCCN2C(=O)CCOc1ccccc1	-2.84
Fc1ccc(-c2nc(CNCCn3cccn3)cs2)cc1	0.385
CNC(=O)N1CCOC(C)(c2cnn(C)c2)C1 (centres undefined)	-5.87
Cc1noc(Cl)c1CCC(=O)N1CCN(CC(C)(C)O)CC1	7.84
CC(NC(=O)N1CCC(OCc2ccccc2)CC1)c1nncn1C (centres undefined)	-11.3
CC(=O)N1CCC(NC2(Cc3cc(C(C)(C)O)on3)COC2)CC1	-7.16
CN1CC(C(=O)N(C)Cc2cc(-c3cccnc3)no2)NC1=O (centres undefined)	-8.52
Cc1nn(C)c(Cl)c1C1CCCN1C(=O)c1ccc(N(C)C)nn1 (centres undefined)	-12.9
Cc1cc2c(=O)n3c(nc2s1)CCN(C(=O)c1cnn(C)c1C)CC3	-14.8
COc1ccc(CN2C[C@@H]3OCCN(CC4CCCO4)[C@@H]3C2)cc1 (some centres undefined)	-19.1
Cc1noc(C)c1-c1cncc(C2CCCN2Cc2nccs2)n1 (centres undefined)	-9.87
Cc1cncc(CN2C[C@@H](O)[C@H](Oc3ccccc3)C2)c1	-0.379
CC(=O)N1CCCN(Cc2csc(-c3ncccn3)n2)CC1	-7.01
Cc1cc2nc(C(C)C)cc(N3CCC(O)CC3)n2n1	-9.55
CN(C)Cc1ccc(N2CCN(CCOCC(F)(F)F)CC2)nc1	17.7
Cc1cn2c(CN(C)C(=O)c3cccnc3O)c(C)nc2s1	-4.29
